According to EP0560235B1, “Condensed heterocyclic ketone derivatives, their production and use” (priority 1992, dated 1993):

Columns and labels:
cholinesterase = biological target: T1, cholinesterase (Rattus norvegicus, UniProt P37136); assay: Cholinesterase inhibitory activity assayed with (acetyl-[3H])-acetylcholine, S1 fraction of cerebral cortex homogenate; type: biochemical; conditions: S1 fraction of male Wistar rat cerebral cortex homogenate; (acetyl-[3H])-acetylcholine substrate; 30 minutes incubation; read-out: Acetylcholinesterase inhibitory activity I C50
T1 construct: using the S1 fraction of a homogenate of male Wistar rat cerebral cortex as the cholinesterase source; from tissue; host or cells: male Wistar rat cerebral cortex, S1 fraction of homogenate
T1 sequence (P37136 32-614): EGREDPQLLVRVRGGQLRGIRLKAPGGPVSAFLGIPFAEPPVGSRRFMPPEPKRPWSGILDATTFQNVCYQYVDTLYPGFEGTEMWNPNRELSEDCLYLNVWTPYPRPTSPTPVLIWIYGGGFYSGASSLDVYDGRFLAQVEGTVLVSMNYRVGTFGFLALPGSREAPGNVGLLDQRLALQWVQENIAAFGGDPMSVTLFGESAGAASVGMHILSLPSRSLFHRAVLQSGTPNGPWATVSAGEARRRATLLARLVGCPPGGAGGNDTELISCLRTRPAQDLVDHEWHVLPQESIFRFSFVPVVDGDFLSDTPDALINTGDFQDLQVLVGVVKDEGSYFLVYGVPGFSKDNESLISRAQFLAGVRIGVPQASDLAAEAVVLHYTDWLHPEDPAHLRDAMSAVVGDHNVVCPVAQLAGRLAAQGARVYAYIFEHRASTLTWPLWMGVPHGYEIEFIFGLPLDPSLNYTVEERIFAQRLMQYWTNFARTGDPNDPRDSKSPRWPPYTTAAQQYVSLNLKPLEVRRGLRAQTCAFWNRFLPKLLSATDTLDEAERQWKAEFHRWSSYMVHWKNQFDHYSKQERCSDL
Procedure: The cholinesterase inhibitory activity of the compound of this invention was assayed with (acetyl-[^3H])-acetylcholine. More specifically, using the S1 fraction of a homogenate of male Wistar rat cerebral cortex as the cholinesterase source, (acetyl[^3H])-acetylcholine as the substrate and the compound of this invention as the test sample were added. The mixture was incubated for 30 minutes, then the reaction was terminated, to which was added a toluene-based scintillant, then the mixture was shaken. The reaction product [^3H]-acetic acid was transferred to the toluene layer, which was subjected to determination of cholinesterase activity by counting with a liquid scintillation counter.

serotonin (5-HT) uptake = biological target: T2, serotonin (5-HT) uptake (Rattus norvegicus, UniProt P31652); assay: Monoamine uptake into crude synaptosomal preparations (P2) of cerebral cortex and hippocampus, [3H]-5-HT; type: biochemical, Rats
T2 construct: Crude synaptosomal preparations (P2) were isolated after differential centrifugation; from tissue; host or cells: rat cerebral cortex and hippocampus, crude synaptosomal preparation (P2)
T2 sequence (P31652 whole entry): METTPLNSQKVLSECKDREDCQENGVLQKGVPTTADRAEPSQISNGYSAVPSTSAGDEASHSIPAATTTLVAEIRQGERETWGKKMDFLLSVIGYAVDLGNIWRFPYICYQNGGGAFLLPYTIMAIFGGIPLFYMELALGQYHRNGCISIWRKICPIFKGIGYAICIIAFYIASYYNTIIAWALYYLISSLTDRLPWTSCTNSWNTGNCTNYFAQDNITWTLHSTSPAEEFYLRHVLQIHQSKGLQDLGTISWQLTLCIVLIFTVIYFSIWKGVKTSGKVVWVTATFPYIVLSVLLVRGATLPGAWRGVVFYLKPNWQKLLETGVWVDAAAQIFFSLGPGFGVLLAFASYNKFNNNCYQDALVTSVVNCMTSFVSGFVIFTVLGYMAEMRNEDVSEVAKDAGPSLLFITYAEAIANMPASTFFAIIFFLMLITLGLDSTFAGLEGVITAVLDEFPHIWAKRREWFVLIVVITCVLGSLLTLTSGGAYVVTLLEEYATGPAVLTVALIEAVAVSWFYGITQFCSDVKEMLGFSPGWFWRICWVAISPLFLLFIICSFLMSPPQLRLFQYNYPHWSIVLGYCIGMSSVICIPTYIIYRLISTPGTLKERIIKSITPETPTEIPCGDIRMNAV
Procedure: Effects of the compound of this invention on monoamine uptake were investigated using [^3H]-norepinephirine(NE) and [^3H]-serotonin (5-HT). Rats were sacrificed by decapitation. The cerebral cortex and hippocampus were removed and homogenized in 10-15 volumes (W/V) of an ice-cold medium containing 0.32 M sucrose. Crude synaptosomal preparations (P2) were isolated after differential centrifugation at 1000 x g for 10 min and 20,000 x g for 30 min at 4°C. […] Synaptosomal membrane suspension (900 µl) was preincubated with the test compound dissolved in DMSO solution at 37°C for 5 min. […] Five minutes later, the reaction was stopped by the addition of 4 ml of ice-cold KRB and the reaction mixture was filtered through Whatman GF/B. Filters were washed twice with 4 ml of KRB and the radioactivity bound was counted with liquid scintillant. […] All compounds were tested at 10^-8, 10^-7, 10^-6 and 10^-5M.

## O=C(CCN1CCN(Cc2ccccc2)CC1)c1ccc2c(c1)CNCCC2 [13-3]
cholinesterase
  IC50: 78.9 nM

## O=C(CCN1CCN(Cc2ccccc2)CC1)c1ccc2c(c1)CCN2Cc1ccccc1 [14-1]
Serotonin (5-HT) uptake
  IC50: 416 nM

## O=C(CCN1CCN(Cc2ccccc2)CC1)c1ccc2c(c1)CN(Cc1ccccc1)CCC2 [14-2]
cholinesterase
  IC50: 538 nM

## O=C(CCN1CCN(Cc2ccccc2)CC1)c1ccc2c(c1)CCN(Cc1cccc(Cl)c1)CC2 [14-4]
cholinesterase
  IC50: 147 nM

## CCN1CCc2ccc(C(=O)CCN3CCN(Cc4ccccc4)CC3)cc2CC1 [14-5]
cholinesterase
  IC50: 18.8 nM

## O=C(CCN1CCN(Cc2ccccc2Cl)CC1)c1ccc2c(c1)CCN(Cc1ccccc1)CC2 [14-6]
Serotonin (5-HT) uptake
  IC50: 34.5 nM
cholinesterase
  IC50: 113 nM

## O=C(CCN1CCN(Cc2cccc(Cl)c2)CC1)c1ccc2c(c1)CCN(Cc1ccccc1)CC2 [14-7]
Serotonin (5-HT) uptake
  IC50: 42.1 nM

## O=C(CCN1CCN(Cc2ccccc2)CC1)c1ccc2c(c1)CCN(Cc1ccc(Cl)cc1)CC2 [14-10]
cholinesterase
  IC50: 167 nM

## Cc1ccccc1CN1CCc2ccc(C(=O)CCN3CCN(Cc4ccccc4)CC3)cc2CC1 [14-14]
cholinesterase
  IC50: 63.6 nM

## N#Cc1ccc(CN2CCc3ccc(C(=O)CCN4CCN(Cc5ccccc5)CC4)cc3CC2)cc1 [14-19]
cholinesterase
  IC50: 33.9 nM

## O=C(CCN1CCN(Cc2ccccc2)CC1)c1ccc2c(c1)CCN(Cc1cccc(F)c1)CC2 [14-20]
cholinesterase
  IC50: 47.8 nM

## COc1ccccc1CN1CCc2ccc(C(=O)CCN3CCN(Cc4ccccc4)CC3)cc2CC1 [14-21]
cholinesterase
  IC50: 22.6 nM

## COc1ccc(CN2CCc3ccc(C(=O)CCN4CCN(Cc5ccccc5)CC4)cc3CC2)cc1OC [14-22]
cholinesterase
  IC50: 21.5 nM

## Cc1ccc(CN2CCc3ccc(C(=O)CCN4CCN(Cc5ccccc5)CC4)cc3CC2)cc1 [14-23]
Serotonin (5-HT) uptake
  IC50: 58.3 nM
cholinesterase
  IC50: 66.1 nM

## Cc1cccc(CN2CCc3ccc(C(=O)CCN4CCN(Cc5ccccc5)CC4)cc3CC2)c1 [14-25]
cholinesterase
  IC50: 69.6 nM

## COc1cccc(CN2CCc3ccc(C(=O)CCN4CCN(Cc5ccccc5)CC4)cc3CC2)c1 [14-27]
cholinesterase
  IC50: 133 nM

## COc1ccc(CN2CCc3ccc(C(=O)CCN4CCN(Cc5ccccc5)CC4)cc3CC2)cc1 [14-29]
Serotonin (5-HT) uptake
  IC50: 54.4 nM
cholinesterase
  IC50: 25.7 nM

## O=C(CCN1CCN(Cc2ccccc2)CC1)c1ccc2c(c1)CCN(CCc1ccccc1)CC2 [14-31]
Serotonin (5-HT) uptake
  IC50: 30.5 nM
cholinesterase
  IC50: 33 nM

## CC(C)CN1CCc2ccc(C(=O)CCN3CCN(Cc4ccccc4)CC3)cc2CC1 [14-33]
Serotonin (5-HT) uptake
  IC50: 55.9 nM
cholinesterase
  IC50: 34.1 nM

## COc1ccc(CCN2CCc3ccc(C(=O)CCN4CCN(Cc5ccccc5)CC4)cc3CC2)cc1OC [14-36]
Serotonin (5-HT) uptake
  IC50: 13.3 nM
cholinesterase
  IC50: 16.8 nM

## O=C(CCN1CCN(Cc2ccccc2)CC1)c1ccc2c(c1)CCN(C(=O)c1ccccc1)CC2 [17-3]
cholinesterase
  IC50: 82.5 nM

## CC(=O)N1CCc2cc(C(=O)CCN3CCN(Cc4ccccc4)CC3)ccc21 [compound 16]
cholinesterase
  IC50: 25.1 nM

## CN1CCc2ccc(C(=O)CCN3CCN(Cc4ccccc4)CC3)cc2CC1 [compound 18]
cholinesterase
  IC50: 33.8 nM
